Experimental data reported in patent publication US9193687B2 (priority 2007, dated 2015).
“And” between values parts separate entries of the source, which are not always exact repeats. Equal values may be shown once. Where a name gives a salt, the structure may show the parent alone. Read-outs that look alike come from different tables or passages of the source.

Key:
[1] = test system: CCRF-CEM/Taxol; assay: In vitro cytotoxicity, XTT assay, taxol-resistant subline; settings: read-out: Cytotoxicity IC50, CCRF-CEM/Taxol
[2] = test system: biosynthesis of DNA, RNA and protein in MX-1 cells; assay: Inhibition of biosynthesis of DNA, RNA and protein (tritiated tracer incorporation); assay type: cell-based, human; settings: Homo sapiens, MX1, read-out: Protein synthesis inhibition
Protocol: [^3H]Thymidine (1 uCi), [^3H]adenosine (1 μCi) and [^3H]leucine (2 μCi) were used as the tracers for incorporation into DNA, RNA and protein, respectively. […] Incubation was terminated at each time points as indicated.

[3] = test system: Human mammary carcinoma (MX-1) tumor cells; assay: In vitro cytotoxicity, SRB assay, 72-hr incubation; settings: read-out: Cytotoxicity IC50, MX-1
[4] = test system: human mammary carcinoma MX-1 xenograft; assay: Antitumor therapeutic effect against MX-1 xenograft in nude mice; assay type: in vivo; settings: i.v. injection
Protocol: Athymic nude mice bearing the nu/nu gene were obtained from NCI, Frederick, Md. and used for all human tumor xenografts. Male nude mice 6 weeks or older weighing 20-24 g or more were used. Compounds were administered via the tail vein for i.v. injection or infusion as described previously.^64 A typical formulation for chemotherapeutic studies for each drug was dissolved in DSMO to make a 25 mg/ml fresh solution, 0.4 ml of this solution was mixed with 0.3 ml of Tween 80, plus 1.3 ml to make 2 ml of 5 mg/ml solution. Bolus injection volume was 0.1-0.2 ml per mouse. Tumor volume was assessed by measuring length×width×height (or width) by using a caliper. For tumor-bearing nude mice during the course of the experiment, the body weight refers to total weight minus the weight of the tumor. All animal studies were conducted in accordance with the guidelines for the National Institute of Health Guide for the Care and Use of Animals and the protocol approved by the Institutional Animal Care and Use Committee.
The therapeutic effects of a drug against human tumor xenografts in nude mice, under the optimal therapeutic conditions but without any lethality due to drug toxicity, the following degrees of therapeutic effects are defined and calculated by the following formula: […]
where • T0 is the initial tumor size (in mm^3) at beginning of drug treatment; • Tc is tumor size of untreated control group on a given date; and • Tx is tumor size of the drug treated group on a given date.
[formula] • Tumor disappearance (complete remission or CR) is defined by the effect where • [Tx=0] for a period of time (in days) for a proportion of animals (NCR/N), where • N is the total number of animals in the group, and NCR is the number of mice in the group that achieved CR. • Tumor relapse is quantitatively calculated by • [The Day tumor relapsed (Drelp)—The Day CR achieved (DCR)] (Eq. 3) for a proportion of animals (Nrelp/N) where N is the total number of animals in the group, and Nrelp is the number of the mice in the group that relapsed. • The log cell kill (LCK) of the tumor tissue after a given chemotherapy that reached CR is estimated by: LCK=log [2^(Tumor remission in days/Tumor doubling time in days)] (Eq. 4)
Athymic nude mice bearing the nu/nu gene were used for human breast tumor MX-1 xenograft (FIGS. 3 and 4) and human brain glioma U87 GM xenograft (FIG. 5). Nude mice were obtained from National Cancer Institute, Frederick, Md. Male mice 6 weeks old or older weighing 22 g or more were used for experiments with subcutaneous tumor inoculation as described previously.^67 Drug was administrated via the tail vein by iv injection. Tumor volumes were assessed by measuring length×width×height (or width) by using caliper. Vehicle used was 20 μL DMSO in 180 μL saline. All animal studies were conducted in accordance with the guidelines of the U.S. National Institutes of Health Guide for the Care and Use of Animals and the protocol approved by the Institutional Animal Care and Use Committee.

[5] = test system: Human colon carcinoma HCT-116 cells; assay: cells
[6] = test system: CCRF-CEM human lymphoblastic leukemia cells; assay: cells; settings: read-out: Cytotoxicity IC50, CCRF-CEM
[7] = test system: Human colon carcinoma HCT-116 cells; settings: read-out: Cytotoxicity IC50, HCT-116
[8] = test system: CCRF-CEM human lymphoblastic leukemia cells; settings: read-out: Cytotoxicity IC50, CCRF-CEM
[9] = test system: lung cancer H460; assay: cells
[10] = test system: lung cancer H1299; assay: cells
[11] = test system: prostate cancer (PC3); assay: cells; settings: read-out: Cytotoxicity IC50, PC3
[12] = dose and schedule per compound as in Table 3
[13] = Homo sapiens, NCI-H460, read-out: Cytotoxicity IC50, H460
[14] = Homo sapiens, NCI-H1299, read-out: Cytotoxicity IC50, H1299
[15] = HCT-116, read-out: Cytotoxicity IC50, HCT-116

SMILES	IC50 [9, 13] [µM]	IC50 [10, 14] [µM]	IC50 ([11]; Homo sapiens) [µM]	IC50 [5, 15] [µM]	IC50 [6] [µM]	also measured
CN(C)CCC(=O)Nc1cccc(NC(=O)Nc2ccc(N(CCCl)CCCl)cc2)c1 (as salt: HCl) [BO-2091, N-(3-(3-(4-(bis(2-chloroethyl)amino)-phenyl)ureido)phenyl)-3-(dimethylamino)-propanamide]	–	–	–	–	–	melting point: 88 to 90 °C
CN(C)CC(=O)Nc1cccc(NC(=O)Nc2ccc(N(CCCl)CCCl)cc2)c1 (as salt: hydrochloride) [BO-2189, N-(3-(3-(4-(bis(2-chloroethyl)amino)phenyl)ureido)phenyl)-2-(dimethyl-amino)acetamide]	–	–	–	–	–	melting point: 62 to 64 °C
Cc1cc(NC(=O)Nc2ccc(N(CCCl)CCCl)cc2)c2ccccc2n1 [BO-1038, 1-{4-[bis(2-chloroethyl)amino]phenyl}-3-(2-methylquinolin-4-yl)urea]	–	–	–	–	–	IC50 ([1]; Homo sapiens, CCRF-CEM, 72 h): 0.43 µM; inhibition at 10 µM [2]: 40 to 80%; IC50 ([3]; Homo sapiens, 72 h): 0.34 µM; Therapeutic effect: complete tumor remission (CR), mice with CR/total and day ([4]; treatment from Day 8, dose and schedule per compound as in Table 3 (30-150 mg/kg)): achieved complete tumor remission and 3/3 CR on D16, 16, 16; Maximal body-weight loss (%) [4, 12]: 4%; Therapeutic effect: tumor relapse [4, 12]: No relapse on D70; IC50 ([5]; HCT-116, 72 h, read-out: Cytotoxicity IC50, HCT-116): 1.42 µM; IC50 ([6]; 72 h): 0.19 µM
Cc1ccc(Nc2c3ccccc3nc3ccccc23)cc1NC(=O)Nc1ccc(N(CCCl)CCCl)cc1 [BO-1150]	–	–	–	–	–	IC50 ([1]; Table 1, XTT, 72-hr incubation): 0.03 µM; IC50 ([3]; Table 1, SRB, 72-hr incubation): 0.58 µM; IC50 ([7]; Table 1, SRB, 72-hr incubation): 0.26 µM; IC50 ([8]; Table 1, XTT, 72-hr incubation): 0.02 µM
CC(C)COC(=O)Nc1cc(COC(=O)Nc2ccc(N(CCCl)CCCl)cc2)cc(Nc2c3ccccc3nc3ccccc23)c1 [BO-1244]	–	–	–	–	–	IC50 ([1]; Table 1, XTT, 72-hr incubation): 0.65 µM; IC50 ([3]; Table 1, SRB, 72-hr incubation): 1.13 µM; IC50 ([7]; Table 1, SRB, 72-hr incubation): 0.3 µM; IC50 ([8]; Table 1, XTT, 72-hr incubation): 0.19 µM
Cc1cccc2c(Nc3cc(COC(=O)Nc4ccc(N(CCCl)CCCl)cc4)cc(NC(=O)OCC(C)C)c3)c3ccccc3nc12 [BO-1245]	–	–	–	–	–	IC50 ([1]; Table 1, XTT, 72-hr incubation): 3.36 µM; IC50 ([3]; Table 1, SRB, 72-hr incubation): 5.97 µM; IC50 ([7]; Table 1, SRB, 72-hr incubation): 2.4 µM
O=C(CCN1CCC(N2CCCCC2)CC1)Nc1ccc(NC(=O)Nc2ccc(N(CCCl)CCCl)cc2)cc1 [BO-2118]	14.5	36	30	11.1	0.72	–
CCN(CC)CCC(=O)Nc1cccc(NC(=O)Nc2ccc(N(CCCl)CCCl)cc2)c1 [BO-2120]	6.79	5.77	13	3.21	0.86	–
O=C(CCN1CCCC1)Nc1cccc(NC(=O)Nc2ccc(N(CCCl)CCCl)cc2)c1 [BO-2121]	9.84	4.33	10.3	5.11	0.67	–
O=C(CCN1CCCCC1)Nc1cccc(NC(=O)Nc2ccc(N(CCCl)CCCl)cc2)c1 [BO-2147, N-(3-(3-(4-(Bis(2-chloroethyl)amino)phenyl)ureido)-phenyl)-3-(piperidin-1-yl)-propanamide]	7.88	4.63	5.73	3.51	0.39	–
O=C(CCN1CCOCC1)Nc1cccc(NC(=O)Nc2ccc(N(CCCl)CCCl)cc2)c1 [BO-2148]	38.5	15.9	35.5	16.8	3.1	–
O=C(CN1CCCC1)Nc1cccc(NC(=O)Nc2ccc(N(CCCl)CCCl)cc2)c1 [BO-2151, N-(3-(3-(4-(bis(2-chloroethyl)amino)phenyl)ureido)-phenyl)-2-(pyrrolidin-1-yl)acetamide]	6.55	9.36	12.8	5.41	3.41	–
O=C(CN1CCOCC1)Nc1cccc(NC(=O)Nc2ccc(N(CCCl)CCCl)cc2)c1 [BO-2182]	19.5	26.4	35.8	13	3.87	–
CCN(CC)CC(=O)Nc1cccc(NC(=O)Nc2ccc(N(CCCl)CCCl)cc2)c1 [BO-2183]	5.67	11.7	13	4.62	2.01	–
O=C(CN1CCCCC1)Nc1cccc(NC(=O)Nc2ccc(N(CCCl)CCCl)cc2)c1 [BO-2184]	5.62	8.55	10.1	7.5	1.35	–
O=C(CN1CCC(N2CCCCC2)CC1)Nc1cccc(NC(=O)Nc2ccc(N(CCCl)CCCl)cc2)c1 [BO-2188]	12.3	12.8	25.9	6.15	30.4	–
CN(C)CC(=O)Nc1cccc(NC(=O)Nc2ccc(N(CCCl)CCCl)cc2)c1 [BO-2189, N-(3-(3-(4-(bis(2-chloroethyl)amino)phenyl)ureido)phenyl)-2-(dimethyl-amino)acetamide]	8.74	10.6	19	9.56	0.78	–
O=C(CCN1CCC(N2CCCCC2)CC1)Nc1cccc(NC(=O)Nc2ccc(N(CCCl)CCCl)cc2)c1 [BO-2191, 3-([1,4′-bipiperidin]-1′-yl)-N-(3-(3-(4-(bis(2-chloroethyl)amino)phenyl)ureido)phenyl)propanamide hydrochloride]	14.2	11	22.1	15.7	1.63	–
N.N.[Cl][Pt][Cl] [Cisplatin, reference compound]	–	–	–	–	–	IC50 ([9]; read-out: Cytotoxicity IC50, H460, Table 2): 18.4 µM; IC50 ([10]; read-out: Cytotoxicity IC50, H1299, Table 2): 13.6 µM; IC50 ([11]; Table 2): 9.96 µM; IC50 ([7]; Table 2): 12.7 µM; IC50 ([8]; Table 2): 3.54 µM
